# In patent EP0300390A1, “Trifluoromethyl-alkoxy-anilin, process for their preparation and their use in the ice-colour technique” (HOECHST AKTIENGESELLSCHAFT, priority 1987, dated 1989):
# Test: AMES test (mutagenicity)
# Assay type: cell-based
compound,measurement,value
CCCCOc1ccc(C(F)(F)F)cc1N [5-Trifluormethyl-2-n-butoxy-anilin],AMES-Test,nicht-mutagen
